These results are taken from US20260184707A1, “PHARMACEUTICAL COMPOUNDS FOR THE TREATMENT OF COMPLEMENT MEDIATED DISORDERS” (ALEXION PHARMACEUTICALS, INC., priority 2022, published 2026).

This test has as its target T1, Human complement C1s enzyme (Homo sapiens, UniProt P09871).
T1 construct: purified from human serum, Complement Technology, Inc; purchased Complement Technology, Inc; host or cells: human serum (plasma-derived native protein)
T1 sequence (P09871 438-688 limits assumed): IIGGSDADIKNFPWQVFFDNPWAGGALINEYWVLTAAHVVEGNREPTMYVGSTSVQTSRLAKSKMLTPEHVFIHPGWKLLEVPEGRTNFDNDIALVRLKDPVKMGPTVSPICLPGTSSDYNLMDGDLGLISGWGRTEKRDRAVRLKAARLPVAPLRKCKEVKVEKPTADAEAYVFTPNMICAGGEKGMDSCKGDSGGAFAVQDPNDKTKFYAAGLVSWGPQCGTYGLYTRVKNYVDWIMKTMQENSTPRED
T1 sequence (P09871 16-437 partner limits assumed): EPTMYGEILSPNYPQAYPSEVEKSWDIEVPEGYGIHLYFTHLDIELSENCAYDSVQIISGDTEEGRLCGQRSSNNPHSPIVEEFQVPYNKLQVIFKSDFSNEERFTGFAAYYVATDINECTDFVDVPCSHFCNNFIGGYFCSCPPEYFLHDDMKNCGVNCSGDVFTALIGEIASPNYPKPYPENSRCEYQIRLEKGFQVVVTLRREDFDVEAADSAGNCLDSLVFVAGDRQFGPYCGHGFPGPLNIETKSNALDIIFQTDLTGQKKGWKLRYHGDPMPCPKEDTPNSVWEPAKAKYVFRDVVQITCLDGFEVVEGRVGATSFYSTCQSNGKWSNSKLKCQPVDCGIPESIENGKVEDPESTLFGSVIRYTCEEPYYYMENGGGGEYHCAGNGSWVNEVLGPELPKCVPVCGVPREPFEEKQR
Briefly: Human C1s enzyme assay. The format is biochemical. Conditions: human complement C1s enzyme 1.16 nM, substrate Z-L-Lys-SBzl, A405; read-out: IC50 (Stars). In a few lines:
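Serum-purified human C1s (1.16 nM final) preincubated 5 min at room temperature with compound in 50 mM Tris, 1 M NaCl, pH 7.5. Z-L-Lys-SBzl and DTNB added at 100 μM each; A405 recorded every 30 s. IC50 from nonlinear regression of reaction rates versus compound concentration.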

The structures appear in SMILES notation.

Usually IC50 stands for the point on the concentration scale where inhibition reaches its midpoint. Turning to `O=C(Cn1c(-c2ccccc2F)ncc(N[C@H](CO)c2ccc3oc4ccccc4c3c2)c1=O)NCc1cc2cnccc2[nH]1` [Compound 433, (S)—N-((1H-Pyrrolo[3,2-c]pyridine-2-yl)methyl)-2-(5-((1-(dibenzo[b,d]furan-2-yl)-2-hydroxyethyl)amino)-2-(2-fluorophenyl)-6-oxopyrimidin-1(6H)-yl)acetamide], the IC50 was less than 100 nM.
As for `C[C@@H](Nc1cnc(N2CCCCC2)n(CC(=O)NCc2cc3cnccc3[nH]2)c1=O)c1ccc(-c2ccccc2)s1` [Compound 445, (R)—N-((1H-Pyrrolo[3,2-c]pyridine-2-yl)methyl)-2-(6-oxo-5-((1-(5-phenylthiophen-2-yl)ethyl)amino)-2-(piperidin-1-yl)pyrimidin-1(6H)-yl)acetamide], the 50% inhibitory concentration (IC50) is less than 100 nM.
Turning to `C[C@@H](Nc1cnc(-c2ccccc2)n(CC(=O)NCc2cc3cnccc3[nH]2)c1=O)c1coc(-c2ccccc2)n1` [Compound 347, (R)-N-((1H-pyrrolo[3,2-c]pyridin-2-yl)methyl)-2-(6-oxo-2-phenyl-5-((1-(2-phenyloxa-zol-4-yl)ethyl)amino)pyrimi-din-1(6H)-yl)acetamide], the IC50 was less than 100 nM.
On to `O=C(Cn1c(-c2ccccc2)ncc(NC(=O)C23CC(c4ccccc4)(C2)C3)c1=O)NCc1cc2cnccc2[nH]1` [Compound 243, N-(1-(2-(((1H-pyrrolo[3,2-c]pyridin-2-yl)methyl)amino)-2-oxoethyl)-6-oxo-2-phenyl-1,6-dihydropyrimidin-5-yl)-3-phenylbicyclo[1.1.1]pentane-1-carboxamide], for which the 50% inhibitory concentration (IC50) is 100 to 1000 nM.
On to `O=C(Cn1c(-c2ccccc2)ncc(NC(=O)c2ccc(-c3ccc(F)cc3F)cc2)c1=O)NCc1cc2cnccc2[nH]1` [Compound 92, N-(1-(2-(((1H-pyrrolo[3,2-c]pyridin-2-yl)methyl)amino)-2-oxoethyl)-6-oxo-2-phenyl-1,6-dihydropyrimidin-5-yl)-2′,4′-difluoro-[1,1′-biphenyl]-4-carboxamide], for which the half-inhibitory concentration (IC50) was less than 100 nM.
Regarding `O=C(Cn1c(-c2ccccc2)ncc(NC(=O)CNC(=O)c2ccc(Oc3ccccc3)cc2)c1=O)NCc1cc2cnccc2[nH]1` [Compound 90, N-(2-((1-(2-(((1H-pyrrolo[3,2-c]pyridin-2-yl)methyl)amino)-2-oxoethyl)-6-oxo-2-phenyl-1,6-dihydropyrimidin-5-yl)-amino)-2-oxoethyl)-4-phenoxy-benzamide], the IC50 was less than 100 nM.
Turning to `C[C@@H](Nc1cnc(N2CCS(=O)(=O)CC2)n(CC(=O)NCc2cc3cnccc3[nH]2)c1=O)c1ccc2oc3ccccc3c2c1` [Compound 385, (R)-N-((1H-pyrrolo[3,2-c]pyridin-2-yl)methyl)-2-(5-((1-(dibenzo[b,d]furan-2-yl)ethyl)-amino)-2-(1,1-dioxidothio-morpholino)-6-oxopyrimidin-1(6H)-yl)acetamide], the IC50 was more than 1000 nM.
In the case of `CS(=N)(=O)c1ccc(CCCNc2cnc(-c3ccccc3)n(CC(=O)NCc3cc4cnccc4[nH]3)c2=O)cc1` (centres unmarked) [Compound 105, N-((1H-pyrrolo[3,2-c]pyridine-2-yl)methyl)-2-(5-((3-(4-(S-methylsulfonimidoyl)phenyl)propyl)amino)-6-oxo-2-phenylpyrimidin-1(6H)-yl) acetamide], the IC50 is less than 100 nM.
Turning to `C[C@@H](Nc1cnc(-c2ccccc2F)n(CC(=O)NCc2cc3cnccc3[nH]2)c1=O)c1ccc2oc3ccccc3c2c1` [Compound 237, (R)-N-((1H-pyrrolo[3,2-c]pyr-idin-2-yl)methyl)-2-(5-((1-(dibenzo[b,d]furan-2-yl)ethyl)-amino)-2-(2-fluorophenyl)-6-oxopyrimidin-1(6H)-yl)acet-amide], the half-maximal inhibitory concentration (IC50) was less than 100 nM.
Under `C[C@@H](Nc1cnc(-c2ccccc2)n(CC(=O)NCc2cc3cnccc3[nH]2)c1=O)c1ccc(Oc2ccccc2)cc1` [Compound 61, (R)—N-((1H-pyrrolo[3,2-c]pyridine-2-yl)methyl)-2-(6-oxo-5-((1-(4-phenoxyphenyl)ethyl)amino)-2-phenylpyrimidin-1(6H)-yl)acetamide] stands less than 100 nM.
Take `O=C(Cn1c(-c2ccccc2)ncc(NC(=O)NCc2ccccc2)c1=O)NCc1cc2cnccc2[nH]1` [Compound 79, N-((1H-pyrrolo[3,2-c]pyridin-2-yl)methyl)-2-(5-(3-benzyl-ureido)-6-oxo-2-phenylpyr-imidin-1(6H)-yl)acetamide]: the 50% inhibitory concentration (IC50) was in the range of 100 to 1000 nM.
Regarding `C[C@@H](Nc1cnc(N2CCCCC2)n(CC(=O)NCc2cc3cnccc3[nH]2)c1=O)c1coc(-c2ccccc2F)n1` [Compound 475, (R)—N-((1H-Pyrrolo[3,2-c]pyridine-2-yl)methyl)-2-(5-((1-(2-(2-fluorophenyl)oxazol-4-yl)ethyl)amino)-6-oxo-2-(piperidin-1-yl)pyrimidin-1(6H)-yl) acetamide], the IC50 is 100 to 1000 nM.
As for `O=C(Cn1c(N2CCOCC2)ncc(NC(=O)c2cnc(-c3ccccc3)o2)c1=O)NCc1cc2cnccc2[nH]1` [Compound 408, N-(1-(2-(((1H-pyrrolo[3,2-c]pyridine-2-yl)methyl)amino)-2-oxoethyl)-2-morpholino-6-oxo-1,6-dihydropyrimidin-5-yl)-2-phenyloxazole-5-carboxamide], the half-inhibitory concentration (IC50) was less than 100 nM.
`Cc1cnc(CNc2ncc(N3CCCCC3)n(CC(=O)NCc3cc4cnccc4[nH]3)c2=O)o1` [Compound 474, N-((1H-pyrrolo[3,2-c]pyridin-2-yl)methyl)-2-(3-(((5-methyl-oxazol-2-yl)methyl)amino)-2-oxo-6-(piperidin-1-yl)pyr-azin-1(2H)-yl)acetamide]: the IC50 was less than 100 nM.
